Measurements published in US20160193216A1 (Nimbus Iris, Inc., priority 2012, published 2016).

biological target: T1, IRAK4 (Homo sapiens, UniProt Q9NWZ3); test: IRAK-4 activity inhibition assay (Caliper); format: biochemical; settings: 37 μM ATP, 3.5 nM IRAK4
T1 sequence (Q9NWZ3 1-460): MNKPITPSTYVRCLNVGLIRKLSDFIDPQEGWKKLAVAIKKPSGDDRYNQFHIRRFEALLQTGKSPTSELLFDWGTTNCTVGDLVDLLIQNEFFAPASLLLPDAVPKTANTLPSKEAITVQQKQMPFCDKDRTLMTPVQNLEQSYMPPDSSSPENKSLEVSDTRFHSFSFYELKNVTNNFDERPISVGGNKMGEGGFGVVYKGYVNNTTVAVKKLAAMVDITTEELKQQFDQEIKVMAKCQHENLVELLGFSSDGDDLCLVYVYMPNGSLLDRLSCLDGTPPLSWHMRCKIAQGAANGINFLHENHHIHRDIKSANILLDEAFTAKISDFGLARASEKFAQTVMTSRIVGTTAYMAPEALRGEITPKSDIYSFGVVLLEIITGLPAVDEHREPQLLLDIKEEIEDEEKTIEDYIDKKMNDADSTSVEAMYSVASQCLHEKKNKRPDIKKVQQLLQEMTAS

| SMILES | IC50 [µM] |
| --- | --- |
| O=S(=O)(CCO)N1CCc2sc3ncnc(N[C@H]4CC[C@H](N5CCOCC5)CC4)c3c2C1 [Compound I-185, 2-(3-[[4-(morpholin-4-yl)cyclohexyl]amino]-8-thia-4,6,12-triazatricyclo[7.4.0.0[2,7]]trideca-1(9),2(7),3,5-tetraene-12-sulfonyl)ethan-1-ol] | < 5 |
| CCCOC(=O)N1CCc2sc3ncnc(N[C@H]4CC[C@H](N5CCOCC5)CC4)c3c2C1 [Compound I-186, propyl 3-[[4-(morpholin-4-yl)cyclohexyl]amino]-8-thia-4,6, 12-triazatricyclo[7.4.0.0[2,7]]trideca-1(9),2(7),3,5-tetraene-12-carboxylate] | < 5 |
| CS(=O)(=O)N1CCc2sc3ncnc(O[C@H]4CC[C@H](N5CCOCC5)CC4)c3c2C1 [Compound I-187, 12-methanesulfonyl-3-[[4-(morpholin-4-yl)cyclohexyl]oxy]-8-thia-4,6, 12-triazatricyclo[7.4.0.0[2,7]]trideca-1(9),2(7),3,5-tetraene] | < 5 |
| CN(C)[C@H]1CC[C@H](Oc2ncnc3sc4c(c23)CN(C(=O)CCCO)CC4)CC1 [Compound I-190, 1-(3-[[4-(dimethylamino)cyclohexyl]oxy]-8-thia-4,6, 12-triazatricyclo[7.4.0.0[2,7]]trideca-1(9),2,4,6-tetraen-12-yl)-4-hydroxybutan-1-one] | 20 to 50 |
| CC1(C)Cc2c(sc3ncnc(O[C@H]4CC[C@H](N5CCOCC5)CC4)c23)CO1 [Compound I-193, 12,12-dimethyl-3-[[4-(morpholin-4-yl)cyclohexyl]oxy]-11-oxa-8-thia-4,6-diazatricyclo[7.4.0.0[2,7]]trideca-1(9),2(7),3,5-tetraene] | < 5 |
| CN1Cc2sc3ncnc(O[C@H]4CC[C@H](N5CCOCC5)CC4)c3c2C1 [Compound I-196, 4-methyl-12-[[4-(morpholin-4-yl)cyclohexyl]oxy]-7-thia-4,9,11-triazatricyclo[6.4.0.0[2,6]]dodeca-1(12),2(6),8, 10-tetraene] | 5 to 20 |
| CC(=O)N1CCc2sc3ncnc(O[C@H]4CC[C@H](N)CC4)c3c2C1 [Compound I-197, 1-[3-[(4-aminocyclohexyl)oxy]-8-thia-4,6, 12-triazatricyclo[7.4.0.0[2,7]]trideca-1(9),2,4,6-tetraen-12-yl]ethan-1-one] | 5 to 20 |
| CC(=O)N1Cc2sc3ncnc(O[C@H]4CC[C@H](N5CCOCC5)CC4)c3c2C1 [Compound I-198, 1-(12-[[4-(morpholin-4-yl)cyclohexyl]oxy]-7-thia-4,9,11-triazatricyclo[6.4.0.0[2,6]]dodeca-1(12),2(6),8, 10-tetraen-4-yl)ethan-1-one] | 20 to 50 |

Second part, the compound after the results:

| IC50 [µM] | SMILES |
| --- | --- |
| < 5 | CCCOC(=O)N1CCc2sc3ncnc(O[C@H]4CC[C@H](N(C)C)CC4)c3c2C1 [Compound I-184, propyl 3-[[4-(dimethylamino)cyclohexyl]oxy]-8-thia-4,6, 12-triazatricyclo[7.4.0.0[2,7]]trideca-1(9),2(7),3,5-tetraene-12-carboxylate] |
| < 5 | c1nc(O[C@H]2CC[C@H](N3CCOCC3)CC2)c2c3c(sc2n1)CNC3 [Compound I-192, 12-[[4-(morpholin-4-yl)cyclohexyl]oxy]-7-thia-4,9, 11-triazatricyclo[6.4.0.0[2,6]]dodeca-1(12),2(6),8, 10-tetraene] |
| 5 to 20 | CN(C)[C@H]1CC[C@H](Oc2ncnc3sc4c(c23)CN(C(=O)CCO)CC4)CC1 [Compound I-195, 1-(3-[[4-(dimethylamino)cyclohexyl]oxy]-8-thia-4,6, 12-triazatricyclo[7.4.0.0[2,7]]trideca-1(9),2,4,6-tetraen-12-yl)-3-hydroxypropan-1-one] |
| 20 to 50 | COC(=O)N1Cc2sc3ncnc(O[C@H]4CC[C@H](N5CCOCC5)CC4)c3c2C1 [Compound I-199, methyl 12-[[4-(morpholin-4-yl)cyclohexyl]oxy]-7-thia-4,9, 11-triazatricyclo[6.4.0.0[2,6]]dodeca-1(12),2(6),8, 10-tetraene-4-carboxylate] |
